#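 Test compounds were applied to cells in 96-well plates for 48 hours at 5 doses. Here, GI50 denotes the concentration required for 50% inhibition of growth.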 Calls of active or inactive are those of the source. Rule as the data show it: active = GI50 up to about 1.1 µM and inactive = higher.
# How the values were obtained:
# Test in all cases: NCI-60 cell line screen, 48 h
# 786-0 = system: 786-0
# A498 = system: A498
# A549 = system: A549
# ACHN = system: ACHN
# CAKI-1 = system: CAKI-1
# CCRF-CEM = system: CCRF-CEM
# COLO 205 = system: COLO 205
# DLD-1 = system: DLD-1
# DMS-114 = system: DMS-114
# DMS-273 = system: DMS-273
# EKVX = system: EKVX
# HCC 2998 = system: HCC 2998
# HCT-116 = system: HCT-116
# HCT-15 = system: HCT-15
# HL-60 = system: HL-60
# HOP-18 = system: HOP-18
# HOP-62 = system: HOP-62
# HOP-92 = system: HOP-92
# HT-29 = system: HT-29
# IGROV-1 = system: IGROV-1
# K562 = system: K562
# KM-20L2 = system: KM-20L2
# KM12 = system: KM12
# LOX IMVI = system: LOX IMVI
# LXFL 529 = system: LXFL 529
# M14 = system: M14
# M19-MEL = system: M19-MEL
# MOLT-4 = system: MOLT-4
# Malme-3M = system: Malme-3M
# NCI-H23 = system: NCI-H23
# NCI-H460 = system: NCI-H460
# NCI-H522 = system: NCI-H522
# OVCAR-3 = system: OVCAR-3
# OVCAR-4 = system: OVCAR-4
# OVCAR-5 = system: OVCAR-5
# OVCAR-8 = system: OVCAR-8
# RPMI-8226 = system: RPMI-8226
# RXF 393 = system: RXF 393
# SF-268 = system: SF-268
# SF-295 = system: SF-295
# SF-539 = system: SF-539
# SK-MEL-28 = system: SK-MEL-28
# SK-MEL-2 = system: SK-MEL-2
# SK-MEL-5 = system: SK-MEL-5
# SK-OV-3 = system: SK-OV-3
# SN12C = system: SN12C
# SNB-19 = system: SNB-19
# SNB-75 = system: SNB-75
# SNB-78 = system: SNB-78
# SR = system: SR
# SW-620 = system: SW-620
# TK-10 = system: TK-10
# U-251 = system: U-251
# UACC-257 = system: UACC-257
# UACC-62 = system: UACC-62
# UO-31 = system: UO-31
# NCI-H226 = system: NCI-H226
# BT-549 = system: BT-549
# DU-145 = system: DU-145
# Hs-578T = system: Hs-578T
# MDA-MB-231 = system: MDA-MB-231
# MDA-MB-435 = system: MDA-MB-435
# MDA-N = system: MDA-N
# PC-3 = system: PC-3
# T47D = system: T47D
# XF498 = system: XF498
smiles,measurement,setting,value
O=[N+]([O-])c1cccc(S(=O)(=O)N/N=C/c2cc(I)cc([N+](=O)[O-])c2O)c1,GI50,786-0,31.8 µM (inactive)
same,GI50,A498,> 100 µM (inactive)
same,GI50,A549,> 100 µM (inactive)
same,GI50,ACHN,31.5 µM (inactive)
same,GI50,CAKI-1,20.3 µM (inactive)
same,GI50,CCRF-CEM,20.1 µM (inactive)
same,GI50,COLO 205,16.5 µM (inactive)
same,GI50,DLD-1,42.5 µM (inactive)
same,GI50,DMS-114,21.6 µM (inactive)
same,GI50,DMS-273,25.6 µM (inactive)
same,GI50,EKVX,29 µM (inactive)
same,GI50,HCC 2998,57 µM (inactive)
same,GI50,HCT-116,27.9 µM (inactive)
same,GI50,HCT-15,24.5 µM
same,GI50,HL-60,21.3 µM (inactive)
same,GI50,HOP-18,29.6 µM (inactive)
same,GI50,HOP-62,26.7 µM (inactive)
same,GI50,HOP-92,16.8 µM (inactive)
same,GI50,HT-29,26.7 µM (inactive)
same,GI50,IGROV-1,36.3 µM (inactive)
same,GI50,K562,29.8 µM (inactive)
same,GI50,KM-20L2,43 µM (inactive)
same,GI50,KM12,32.4 µM (inactive)
same,GI50,LOX IMVI,27.9 µM (inactive)
same,GI50,LXFL 529,21.5 µM (inactive)
same,GI50,M14,27.2 µM (inactive)
same,GI50,M19-MEL,34.8 µM (inactive)
same,GI50,MOLT-4,31.5 µM (inactive)
same,GI50,Malme-3M,25.9 µM (inactive)
same,GI50,NCI-H23,22 µM (inactive)
same,GI50,NCI-H460,34 µM (inactive)
same,GI50,NCI-H522,18.8 µM (inactive)
same,GI50,OVCAR-3,21.4 µM (inactive)
same,GI50,OVCAR-4,27.9 µM (inactive)
same,GI50,OVCAR-5,40.1 µM (inactive)
same,GI50,OVCAR-8,25.6 µM (inactive)
same,GI50,RPMI-8226,37 µM (inactive)
same,GI50,RXF 393,26.4 µM (inactive)
same,GI50,SF-268,30.1 µM (inactive)
same,GI50,SF-295,32.7 µM (inactive)
same,GI50,SF-539,23.8 µM (inactive)
same,GI50,SK-MEL-28,27.7 µM (inactive)
same,GI50,SK-MEL-2,19.7 µM (inactive)
same,GI50,SK-MEL-5,22.7 µM (inactive)
same,GI50,SK-OV-3,26.5 µM (inactive)
same,GI50,SN12C,24.2 µM (inactive)
same,GI50,SNB-19,23.9 µM (inactive)
same,GI50,SNB-75,22.4 µM (inactive)
same,GI50,SNB-78,22 µM (inactive)
same,GI50,SR,26.9 µM (inactive)
same,GI50,SW-620,22 µM (inactive)
same,GI50,TK-10,29.2 µM (inactive)
same,GI50,U-251,20.9 µM (inactive)
same,GI50,UACC-257,25.2 µM (inactive)
same,GI50,UACC-62,22 µM (inactive)
same,GI50,UO-31,26.1 µM (inactive)
COC1(C)C(=O)N2C1N(C(=O)OC(C)(C)C)CC2(C)C (centres undefined),GI50,786-0,> 100 µM (inactive)
same,GI50,A498,> 100 µM (inactive)
same,GI50,A549,> 100 µM (inactive)
same,GI50,ACHN,> 100 µM (inactive)
same,GI50,CAKI-1,> 100 µM (inactive)
same,GI50,CCRF-CEM,> 100 µM (inactive)
same,GI50,COLO 205,36.5 µM (inactive)
same,GI50,DLD-1,> 100 µM (inactive)
same,GI50,DMS-114,42.8 µM (inactive)
same,GI50,DMS-273,> 100 µM (inactive)
same,GI50,EKVX,> 100 µM (inactive)
same,GI50,HCC 2998,> 100 µM (inactive)
same,GI50,HCT-116,96.4 µM (inactive)
same,GI50,HCT-15,63.2 µM
same,GI50,HL-60,> 100 µM (inactive)
same,GI50,HOP-18,> 100 µM (inactive)
same,GI50,HOP-62,> 100 µM (inactive)
same,GI50,HOP-92,> 100 µM (inactive)
same,GI50,HT-29,> 100 µM (inactive)
same,GI50,IGROV-1,> 100 µM (inactive)
same,GI50,K562,> 100 µM (inactive)
same,GI50,KM-20L2,> 100 µM (inactive)
same,GI50,KM12,> 100 µM (inactive)
same,GI50,LOX IMVI,23.5 µM (inactive)
same,GI50,LXFL 529,> 100 µM (inactive)
same,GI50,M14,> 100 µM (inactive)
same,GI50,M19-MEL,> 100 µM (inactive)
same,GI50,MOLT-4,> 100 µM (inactive)
same,GI50,Malme-3M,> 100 µM (inactive)
same,GI50,NCI-H226,> 100 µM (inactive)
same,GI50,NCI-H23,> 100 µM (inactive)
same,GI50,NCI-H460,81.3 µM (inactive)
same,GI50,NCI-H522,> 100 µM (inactive)
same,GI50,OVCAR-3,> 100 µM (inactive)
same,GI50,OVCAR-4,> 100 µM (inactive)
same,GI50,OVCAR-5,> 100 µM (inactive)
same,GI50,OVCAR-8,> 100 µM (inactive)
same,GI50,RPMI-8226,44.8 µM (inactive)
same,GI50,RXF 393,> 100 µM (inactive)
same,GI50,SF-268,> 100 µM (inactive)
same,GI50,SF-295,> 100 µM (inactive)
same,GI50,SF-539,> 100 µM (inactive)
same,GI50,SK-MEL-28,> 100 µM (inactive)
same,GI50,SK-MEL-2,> 100 µM (inactive)
same,GI50,SK-MEL-5,> 100 µM (inactive)
same,GI50,SK-OV-3,> 100 µM (inactive)
same,GI50,SN12C,> 100 µM (inactive)
same,GI50,SNB-19,> 100 µM (inactive)
same,GI50,SNB-75,> 100 µM (inactive)
same,GI50,SNB-78,> 100 µM (inactive)
same,GI50,SW-620,17.5 µM (inactive)
same,GI50,TK-10,> 100 µM (inactive)
same,GI50,U-251,> 100 µM (inactive)
same,GI50,UACC-257,> 100 µM (inactive)
same,GI50,UACC-62,> 100 µM (inactive)
same,GI50,UO-31,> 100 µM (inactive)
CO[C@H](C(=O)[C@@H](O)[C@@H](C)O)[C@@H]1Cc2cc3cc(OC4CC(OC5CC(O)C(O)C(C)O5)C(O)C(C)O4)c(C)c(O)c3c(O)c2C(=O)[C@H]1OC1CC(OC2CC(OC3CC(C)(O)C(O)C(C)O3)C(O)C(C)O2)C(O)C(C)O1 (some centres undefined),GI50,786-0,0.00927 µM (active)
same,GI50,BT-549,0.00689 µM (active)
same,GI50,CAKI-1,0.125 µM (active)
same,GI50,DLD-1,0.334 µM (active)
same,GI50,DMS-114,0.348 µM (active)
same,GI50,DMS-273,0.348 µM (active)
same,GI50,DU-145,0.0438 µM (active)
same,GI50,HCT-116,0.125 µM (active)
same,GI50,HL-60,0.128 µM (active)
same,GI50,HOP-18,0.125 µM (active)
same,GI50,Hs-578T,0.00331 µM (active)
same,GI50,KM-20L2,0.348 µM (active)
same,GI50,M14,0.0196 µM (active)
same,GI50,M19-MEL,0.314 µM (active)
same,GI50,MDA-MB-231,0.0495 µM (active)
same,GI50,MDA-MB-435,0.0197 µM (active)
same,GI50,MDA-N,0.0128 µM (active)
same,GI50,NCI-H226,0.125 µM (active)
same,GI50,OVCAR-8,0.176 µM (active)
same,GI50,PC-3,0.0284 µM (active)
same,GI50,SF-539,0.125 µM (active)
same,GI50,SNB-19,0.125 µM (active)
same,GI50,SNB-78,0.395 µM (active)
same,GI50,SR,0.00526 µM (active)
same,GI50,T47D,0.00406 µM (active)
same,GI50,TK-10,0.129 µM (active)
same,GI50,XF498,0.314 µM (active)

# From ChEMBL document CHEMBL1201862, “PubChem BioAssay data set” (2004)
